The target of this test is T1, Renin (Homo sapiens, UniProt P00797).
T1 construct: Das Blut wird von freiwilligen Probanden gewonnen; from tissue; host or cells: human blood plasma (EDTA) from volunteers
T1 sequence (P00797 67-406): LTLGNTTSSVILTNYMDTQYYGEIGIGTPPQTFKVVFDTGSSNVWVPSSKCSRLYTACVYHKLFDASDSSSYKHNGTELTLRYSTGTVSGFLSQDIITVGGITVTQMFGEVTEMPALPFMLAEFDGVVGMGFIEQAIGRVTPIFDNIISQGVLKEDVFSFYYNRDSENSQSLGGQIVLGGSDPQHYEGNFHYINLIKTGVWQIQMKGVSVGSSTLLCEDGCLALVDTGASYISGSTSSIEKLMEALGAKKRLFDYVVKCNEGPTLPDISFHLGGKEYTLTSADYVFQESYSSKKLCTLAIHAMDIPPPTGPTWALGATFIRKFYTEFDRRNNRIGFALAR
Kind of test: Renin inhibition in human plasma (angiotensin I release, radioimmunoassay). The test is classed as biochemical. The conditions noted are these: 37°C, 1 h incubation, phosphate buffer pH 7.4, max. 1 % DMSO, read from % residual plasma renin activity vs. concentration, read-out: IC₅₀. The procedure:
Die Wirksamkeit von Renin-Hemmern kann durch in-vitro-Tests überprüft werden. Hierbei wird die Verminderung der Bildung von Angiotensin I in verschiedenen Systemen (Humanplasma, gereinigtes Humanrenin) gemessen.
Z.B. Humanplasma, welches sowohl Renin als auch Angiotensinogen enthält, wird bei 37°C mit der zu testenden Verbindung inkubiert. Dabei wird aus Angiotensinogen unter der Einwirkung von Renin Angiotensin I freigesetzt, das anschließend mit einem handelsüblichen Radioimmunoassay gemessen werden kann. Diese Angiotensin-Freisetzung wird durch Renin-Inhibitoren gehemmt.
Das Blut wird von freiwilligen Probanden gewonnen (ca. 0,5 l pro Person; Bluko-Entnahmegerät der Fa. ASID Bonz und Sohn, Unterschleißheim) und in teilweise evakuierten Flaschen unter Eiskühlung aufgefangen. Die Gerinnung wird durch Zugabe von EDTA (Endkonzentration 10 mM) verhindert. Nach dem Zentrifugieren (Rotor HS 4 (Sorvall), 3 500 Upm, 0-4°C, 15 min; wiederholen, falls erforderlich) wird das Plasma vorsichtig abpipettiert und in geeigneten Portionen bei -30°C eingefroren. Für den Test werden nur Plasmen mit ausreichend hoher Reninaktivität verwendet. Plasmen mit niedriger Reninaktivität werden durch eine Kältebehandlung (-4°C, 3 Tage) aktiviert (Prorenin → Renin).
Angiotensin I wird mit dem Renin-Maia®-Kit (Serono Diagnostics S.A., Coinsins, Schweiz) bestimmt. Die Inkubation des Plasmas wird nach der dort angegebenen Anleitung durchgeführt: Inkubationsansatz: 1000 µl Plasma (bei 0-4°C aufgetaut) 100 µl Phosphatpuffer (pH 7,4) Zusatz von 10⁻⁴ M Ramiprilat) 10 µl PMSF-Lösung 10 µl 0,1 % Genapol PFIC 12 µl DMSO bzw. Testpräparat
Die Testpräparate werden i.a. 10⁻² M in 100 % Dimethylsulfoxid (DMSO) gelöst und mit DMSO entsprechend verdünnt; der Inkubationsansatz enthält max. 1 % DMSO.
Die Ansätze werden in Eis gemischt und für 1 Stunde zur Inkubation in ein Wasserbad (37°C) gestellt. Aus einem zusätzlichen Ansatz ohne Inhibitor werden ohne weitere Inkubation insgesamt 6 Proben (jeweils 100 µl) zur Bestimmung des Ausgangs-Angiotensin I-Gehaltes des verwendeten Plasmas entnommen.
Die Konzentrationen der Testpräparate werden so gewählt, daß etwa der Bereich von 10-90 % Enzymhemmung abgedeckt ist (mindestens fünf Konzentrationen). Am Ende der Inkubationszeit werden aus jedem Ansatz drei 100 µl-Proben in vorgekühlten Eppendorf-Gefäßen auf Trockeneis eingefroren und bei ca. -25°C für die Angiotensin I-Bestimmung aufbewahrt (Mittelwert aus drei Einzelproben).
Es wird exakt der Gebrauchsanweisung des RIA-Kits (Renin-Maia®-Kit, Serono Diagnostics S.A., Coinsins, Schweiz) befolgt.
Die Eichkurve umfaßt den Bereich von 0,2 bis 25,0 ng Angiotensin I pro ml. Der Basis-Angiotensin I-Gehalt des Plasmas wird von allen Meßwerten abgezogen. Die Plasma-Renin-Aktivität (PRA) wird als ng Ang I/ml x Stunde angegeben. PRA-Werte in Gegenwart der Testsubstanzen werden auf einen Ansatz ohne Inhibitor (= 100 %) bezogen und als % Restaktivität angegeben. Aus der Auftragung von % Restaktivität gegen die Konzentration (M) des Testpräparates (logarithmische Skala) wird der IC₅₀-Wert abgelesen.

As for `CCNC(=O)N[C@@H](Cc1ccccc1)C(=O)N[C@@H](Cc1c[nH]cn1)C(=O)N[C@@H](CC1CCCCC1)[C@H](O)CCCc1ccccn1` [Beispiel 11, 1-Cyclohexyl-6-(2-pyridyl)-2S-(N-(ethylaminocarbonyl-Phe-His)-amino)-3R-hexanol], the IC50 is 900 nM.

As for `CCC[C@H](NC(=O)[C@H](Cc1ccccc1)NC(=O)NC(C)C)C(=O)N[C@@H](CC1CCCCC1)[C@H](O)CCCc1ccccn1` [Beispiel 12, 1-Cyclohexyl-6-(2-pyridyl)-2S-(N-(isopropylaminocarbonyl-Phe-Nva)-amino)-3R-hexanol], the IC50 turned out to be 5500 nM.

As to `CCC[C@H](NC(=O)[C@H](Cc1ccccc1)NC(=O)NCC(C)(C)N)C(=O)N[C@@H](CC1CCCCC1)[C@@H](O)CCCc1ccccn1` [Beispiel 13, 1-Cyclohexyl-6-(2-pyridyl)-2S-(N-(2-amino-2-methylpropylaminocarbonyl-Phe-Nva)-amino)-3S-hexanol], the IC50 amounted to 340 nM.

With `CC(C)(C)NC(=O)N[C@@H](Cc1ccccc1)C(=O)N[C@@H](CC(N)=O)C(=O)N[C@@H](CC1CCCCC1)[C@@H](O)CCCc1ccccn1` [Beispiel 14], the IC50 came out at 8000 nM.

On to `CCC[C@H](NC(=O)[C@H](Cc1ccccc1)NC(=O)NC(C)(C)C)C(=O)N[C@@H](CC1CCCCC1)[C@H](O)CCCc1ccccn1` [Beispiel 9, 1-Cyclohexyl-6-(2-pyridyl)-2S-(N-(tert.butylaminocarbonyl-Phe-Nva)-amino)-3R-hexanol], for which the IC50 stood at 6500 nM.

Consider `CC(C)(C)NC(=O)N[C@@H](Cc1ccccc1)C(=O)N[C@@H](Cc1c[nH]cn1)C(=O)N[C@@H](CC1CCCCC1)[C@H](O)CCCc1ccccn1` [Beispiel 10, 1-Cyclohexyl-6-(2-pyridyl)-2S-(N-(tert.butylaminocarbonyl-Phe-His)-amino)-3R-hexanol], for which the IC50 was over 1000 nM.

As to `CC(C)(C)NC(=O)N[C@@H](Cc1ccccc1)C(=O)N[C@@H](Cc1c[nH]cn1)C(=O)N[C@@H](CC1CCCCC1)[C@@H](O)CCCc1ccccn1` [Beispiel 5], the IC50 amounted to 1000 nM.

In the case of `CCC[C@H](NC(=O)[C@H](Cc1ccccc1)NC(=O)NCC(C)(C)C)C(=O)N[C@@H](CC1CCCCC1)[C@@H](O)CCCc1ccccn1` [Beispiel 3, 1-Cyclohexyl-6-(2-pyridyl)-2S-(N-(2,2-dimethylpropylaminocarbonyl-Phe-Nva)-amino)-3S-hexanol], the IC50 came out at 900 nM.

For `CCC[C@H](NC(=O)[C@H](Cc1ccccc1)NC(=O)NC(C)C)C(=O)N[C@@H](CC1CCCCC1)[C@@H](O)CCCc1ccccn1` [Beispiel 2, 1-Cyclohexyl-6-(2-pyridyl)-2S-(N-(isopropylaminocarbonyl-Phe-Nva)-amino)-3S-hexanol], the IC50 amounted to 620 nM.

For the compound `CCC[C@H](NC(=O)[C@H](Cc1cccs1)NC(=O)NC(C)(C)C)C(=O)N[C@@H](CC1CCCCC1)[C@@H](O)CCCc1ccccn1` [Beispiel 7, 1-Cyclohexyl-6-(2-pyridyl)-2S-(N-(tert.butylaminocarbonyl-Thi-Nva)-amino)-3S-hexanol], the IC50 was determined as 260 nM.

As for `CCNC(=O)N[C@@H](Cc1ccccc1)C(=O)N[C@@H](Cc1c[nH]cn1)C(=O)N[C@@H](CC1CCCCC1)[C@@H](O)CCCc1ccccn1` [Beispiel 1, 1-Cyclohexyl-6-(2-pyridyl)-2S-(N-(ethylaminocarbonyl-Phe-His)-amino)-3S-hexanol], the IC50 was determined as 2000 nM.

As to `CCC[C@H](NC(=O)[C@H](Cc1ccccc1)NC(=O)NC(C)(C)C)C(=O)N[C@@H](CC1CCCCC1)[C@@H](O)CCCc1ccccn1` [Beispiel 6, 1-Cyclohexyl-6-(2-pyridyl)-2S-(N-(tert.butylaminocarbonyl-Phe-Nva)-amino)-3S-hexanol], the IC50 turned out to be 400 nM.

Consider `CCC[C@H](NC(=O)[C@H](Cc1ccccc1)NC(=O)NCC)C(=O)N[C@@H](CC1CCCCC1)[C@@H](O)CCCc1ccccn1` [Beispiel 4, 1-Cyclohexyl-6-(2-pyridyl)-2S-(N-(ethylaminocarbonyl-Phe-Nva)-amino)-3S-hexanol], for which the IC50 worked out at 380 nM.

Regarding `CCC[C@H](NC(=O)[C@H](Cc1ccccc1)NC(=O)NC(C)(C)C(=O)O)C(=O)N[C@@H](CC1CCCCC1)[C@@H](O)CCCc1ccccn1` [Beispiel 29, 1-Cyclohexyl-6-(2-pyridyl)-2S-[N-[(1-carboxy-1-methylethylaminocarbonyl)-Phe-Nva]-amino]-3S-hexanol], the IC50 stood at 650 nM.

`CCC[C@H](NC(=O)[C@H](Cc1ccc(OC)cc1)NC(=O)NC(C)(C)C)C(=O)N[C@@H](CC1CCCCC1)[C@@H](O)CCCc1ccccn1` [Beispiel 8]: the IC50 was over 10000 nM.

The values above are taken from patent EP0370382A2, “Urea dipeptide derivatives with a renin-inhibiting activity, process to produce them, compositions containing them and their use” (HOECHST AKTIENGESELLSCHAFT, priority 1988, dated 1990).
